Test results as given in patent US20180265867A1, “NUCLEIC ACID MOLECULES WITH ENHANCED ACTIVITY” (priority 2015, published 2018).
d = 2'-deoxy (DNA); r = 2'-OH (RNA)

Assays:
Format in all cases: cell-based, human
[1] = system: IFN-α, IFN-β, IFN-γ; assay: Interferon assay (IFN-α, β, γ mRNA by RT-PCR) in MG63 cells; settings: 50 or 100 nM, 24 h, compared to cell-alone control or scrambled sequence
Method: cDNA synthesis was performed in triplicate using total RNA reverse transcribed using High Capacity cDNA reverse transcription kit (Applied Biosystems, USA), with non-template control added to ensure a lack of signal in assay background. Reactions were incubated on a 96-well Applied Biosystems 9800 Fast Thermal Cycler PCR System at 37° C. for 60 min followed by 95° C. for 5 min. The real-time PCR reactions were carried out with 10 μl of 2×TaqMan® Universal PCR Master Mix, no AmpErase® UNG (Applied Biosystems, USA), 9 μl diluted cDNA, and 1 μl of TaqMan gene specific assay mix in a 20 μl final reaction volume. Reference gene beta-actin (ACTB) (Applied Biosystems, USA) was selected as control for normalization of TaqMan data. […] Data from samples with a Ct value equal to or below 35 were further analyzed. Samples were normalized relative to endogenous control and differences in cycle number thresholds were calculated using comparative quantitation 2^−ΔΔcT method (also called the ΔΔCT method), commonly used for analyzing siRNA induced gene knockdown efficiency. […]
Thus, because cellular stress mainly originates from maturation of the RNA-TLR complex in the endosome or activation of RIG-1 in the cytoplasm, we investigated immune activation and IFN response using cpRNA and a scrambled sequence. The levels of Type-I (IFN-α and β) and Type-II (IFN-γ) IFN were tested via quantitative RT-PCR. […]

[2] = system: GAPDH; assay: Western blot of GAPDH protein in MG63 cells; settings: MG63, 50 nM, at 48 h, no transfection reagent
Method: After 48 hours of transfection, cells were washed twice with ice-cold PBS and lysed in RIPA lysis buffer (50 mM Tris-HCl, pH 8.0, with 150 mM NaCl, 1.0% Igepal CA-630 (NP-40), 0.5% sodiumdeoxycholate, 0.1% SDS, and 1.0% protease inhibitor cocktail from SIGMA-ALDRICH®). Lysates were incubated on ice for 30 minutes and centrifuged at 10,000 rpm for 20 minutes to collect supernatant. Coomassie Plus—The Better Bradford Assay™ Reagent (Thermo Scientific) was used to measure protein concentrations. Thereafter, 20 μg of soluble protein was separated by SDS-PAGE and transferred to polyvinylidene difluoride membrane (Millipore). Primary antibodies against GAPDH (1:1000 dilution), β-catenin (1:1000 dilution; SIGMA-ALDRICH®), β-actin (1:1000; Cell Signaling Technology®) were used to probe the protein bands. Anti-Rabbit-HRP conjugated secondary antibodies (1:3000 dilution; R&D Systems®) were used to detect the primary antibodies, followed by the target protein visualization with EMD Millipore Immobilon™ Western Chemiluminescent HRP Substrate (ECL). […]
To further validate our results, we tested the gene knockdown efficiency of another gene CTNNB1 (β-catenin), which is expressed in MG63 cells. We performed a time course experiment (24, 48 and 72 h) by targeting CTNNB1 and GAPDH in MG63 cells and quantified the mRNA and protein levels using qRT-PCR and Western blot experiments respectively (FIG. 8).

[3] = system: GAPDH; assay: Energy dependence of cpRNA uptake: transfection at 4° C. or 37° C., GAPDH knockdown; settings: carrier-free
Method: To determine, if cellular uptake of cpRNA is an energy dependent endocytosis process, transfection experiments were performed at 4° C. and 37° C. Briefly, HCT116, HOB and MG63 cells were plated and incubated with cpRNA (dT5 or dA5 or scrambled siRNA sequence) at 4° C. or 37° C. for 4 h. After 4 h, medium was replaced with fresh medium and the cells were incubated for additional 24 h. Untreated cells were used as controls. Each transfection was performed in triplicate. […] Cellular uptake using these siRNA sequences was reduced by nearly 30% when experiments were performed at 4° C., see FIG. 4.
Next, it was investigated if the cellular uptake mechanism of cpRNA occurred by endocytosis. Transfection experiments were performed with dT5-modified cpRNA at 4° C. and found lower RNAi activity (50% gene knockdown) compared to activity at 37° C. […] Upon endocytosis, the 5-nt overhang length participated in an unknown endosomal escape mechanism that promoted cytosol transport of RNA. […] TLR-7, -8 and -9, selectively bind single-stranded DNA or RNA sequences with TLR-7 and -8 preferentially bind U and G rich sequence while TLR-9 bind CpG nt repeats. TLR3, on the other hand, nonspecifically binds the 21mer RNA duplex after dimerization of the receptor to form a 2:1 TLR3-RNA complex. […]

dT5: GAPDH siRNA, sense SEQ ID NO: 3 with dT5 3′-overhang, antisense SEQ ID NO: 2 with dT2 (sense CCGAGCCACAUCGCUCAGATTTTT; antisense UCUGAGCGAUGUGGCUCGGTT; sense: sugars from the 5' end r19 d5, backbone not given here; antisense: sugars from the 5' end r19 d2, backbone not given here)
IFN response / immune activation (IFN-α, β, γ mRNA) [1]: no significant IFN response
GAPDH protein level [2]: complete knockout
GAPDH gene knockdown at 4° C. ([3]; incubation at 4° C. for 4 h, then 24 h): 50%
GAPDH gene knockdown at 37° C. ([3]; incubation at 37° C.): 80%
